Test results from patent publication US10131652B2, “Pyrimidinyloxy benzene derivatives as herbicides” (E. I. DU PONT DE NEMOURS AND COMPANY, priority 2014, dated 2018).

Key:
Type in all cases: in vivo
[1] = system: Italian ryegrass (Lolium multiflorum); assay: Test B pre-/postemergence plant response; conditions: for Ryegrass, Italian plant response rating: 0 to 100 scale (0 no effect, 100 complete control)
Text: (§1) Seeds of plant species selected from bamyardgrass (Echinochloa crus-galli), kochia (Kochia scoparia), ragweed (common ragweed, Ambrosia elatior), Italian ryegrass (Lolium multiflorum), large (Lg) crabgrass (Digitaria sanguinalis), giant foxtail (Setaria faberii), momingglory (Ipomoea spp.), pigweed (Amaranthus retroflexus), velvetleaf (Abutilon theophrasti), wheat (Triticum aestivum), and corn (Zea mays) were planted into a blend of loam soil and sand and treated preemergence with a directed soil spray using test chemicals formulated in a non-phytotoxic solvent mixture which included a surfactant. At the same time, plants selected from these crop and weed species and also blackgrass (Alopecurus myosuroides), and galium (catchweed bedstraw, Galium aparine) were planted in pots containing the same blend of loam soil and sand and treated with postemergence applications of test chemicals formulated in the same manner. Plants ranged in height from 2 to 10 cm and were in the one- to two-leaf stage for the postemergence treatment. Treated plants and untreated controls were maintained in a greenhouse for approximately 10 days, after which time all treated plants were compared to untreated controls and visually evaluated for injury. Plant response ratings, summarized in Table B, are based on a 0 to 100 scale where 0 is no effect and 100 is complete control. A dash (-) response means no test result.

[2] = system: barnyardgrass (Echinochloa crus-galli); assay: Test B pre-/postemergence plant response; conditions: for Barnyardgrass plant response rating: 0 to 100 scale (0 no effect, 100 complete control)
Text: as §1

corn (Zea mays) = assay: Test B pre-/postemergence plant response; conditions: 0 to 100 scale, 0 no effect, 100 complete control
Text: as §1

[3] = system: giant foxtail (Setaria faberii); assay: Test B pre-/postemergence plant response; conditions: for Foxtail, Giant plant response rating: 0 to 100 scale (0 no effect, 100 complete control)
Text: as §1

kochia (Kochia scoparia) = assay: Test B pre-/postemergence plant response; conditions: for Kochia plant response rating: 0 to 100 scale (0 no effect, 100 complete control)
Text: as §1

[4] = system: pigweed (Amaranthus retroflexus); assay: Test B pre-/postemergence plant response; conditions: for Pigweed plant response rating: 0 to 100 scale (0 no effect, 100 complete control)
Text: as §1

[5] = system: ragweed (common ragweed, Ambrosia elatior); assay: Test B pre-/postemergence plant response; conditions: for Ragweed plant response rating: 0 to 100 scale (0 no effect, 100 complete control)
Text: as §1

[6] = system: wheat (Triticum aestivum); assay: Test B pre-/postemergence plant response; conditions: 0 to 100 scale, 0 no effect, 100 complete control
Text: as §1

[7] = system: blackgrass (Alopecurus myosuroides); assay: Test B postemergence plant response; conditions: 0 to 100 scale, 0 no effect, 100 complete control
In short: (§2)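 Visual injury rating, 0–100 (0 = no effect, 100 = complete control), vs untreated controls ~10 days after postemergence spray; greenhouse; potted loam soil/sand; plants 2–10 cm, 1–2 leaf stage.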

[8] = system: galium (catchweed bedstraw, Galium aparine); assay: Test B postemergence plant response; conditions: 0 to 100 scale, 0 no effect, 100 complete control
In short: as §2

[9] = system: barnyardgrass (Echinochloa crus-galli); assay: Test C flooded paddy test plant response; conditions: Flood, 250 g ai/ha; scale of 0 to 100 where 0 is no effect and 100 is complete control; 13 to 15 days
Method: (§3) Plant species in the flooded paddy test selected from rice (Oryza sativa), small-flower umbrella sedge (Cyperus difformis), ducksalad (Heteranthera limosa), and bamyardgrass (Echinochloa crus-galli) were grown to the 2-leaf stage for testing. At time of treatment, test pots were flooded to 3 cm above the soil surface, treated by application of test compounds directly to the paddy water, and then maintained at that water depth for the duration of the test. Treated plants and controls were maintained in a greenhouse for 13 to 15 days, after which time all species were compared to controls and visually evaluated. Plant response ratings, summarized in Table C, are based on a scale of 0 to 100 where 0 is no effect and 100 is complete control. A dash (-) response means no test result.

[10] = system: ducksalad (Heteranthera limosa); assay: Test C flooded paddy test plant response; conditions: Flood, 250 g ai/ha; scale of 0 to 100 where 0 is no effect and 100 is complete control; 13 to 15 days
Method: as §3

rice (Oryza sativa) = assay: Test C flooded paddy test plant response; conditions: Flood, 250 g ai/ha; scale of 0 to 100 where 0 is no effect and 100 is complete control; 13 to 15 days
Method: as §3

[11] = system: small-flower umbrella sedge (Cyperus difformis); assay: Test C flooded paddy test plant response; conditions: Flood, 250 g ai/ha; scale of 0 to 100 where 0 is no effect and 100 is complete control; 13 to 15 days
Method: as §3

[12] = 31 g ai/ha, Postemergence, 0 to 100 scale, 0 no effect, 100 complete control
[13] = 125 g ai/ha, postemergence, 0 to 100 scale, 0 no effect, 100 complete control
[14] = Preemergence, 125 g ai/ha, 0 to 100 scale where 0 is no effect and 100 is complete control

SMILES | Plant response rating, Ryegrass, Italian [1, 12] | Plant response rating, Ryegrass, Italian [1, 13] | Ryegrass, Italian plant response rating ([1]; Preemergence, 31 g ai/ha) | Plant response rating, Ryegrass, Italian [1, 14] | Plant response rating, Barnyardgrass [2, 12] | Plant response rating, Barnyardgrass [2, 13] | Barnyardgrass plant response rating ([2]; Preemergence, 31 g ai/ha) | Plant response rating, Barnyardgrass [2, 14] | Plant response rating, Corn (corn (Zea mays); 31 g ai/ha, Postemergence) | Plant response rating, Corn (corn (Zea mays); 125 g ai/ha, postemergence) | Plant response rating, Foxtail, Giant [3, 12] | Plant response rating, Foxtail, Giant [3, 13] | Foxtail, Giant plant response rating ([3]; Preemergence, 31 g ai/ha) | Plant response rating, Foxtail, Giant [3, 14] | Plant response rating, Kochia (kochia (Kochia scoparia); [12]) | Plant response rating, Kochia (kochia (Kochia scoparia); [13]) | Kochia plant response rating (kochia (Kochia scoparia); Preemergence, 31 g ai/ha) | Plant response rating, Kochia (kochia (Kochia scoparia); [14]) | Plant response rating, Pigweed [4, 12] | Plant response rating, Pigweed [4, 13] | further results
COc1cccc(Oc2ncc(Cl)cn2)c1-c1cc(C(F)F)no1 [Compound 103] | 0 | 10 | 0 | 0 | 0 | 40 | 0 | 50 | 0 | 30 | 40 | 70 | 50 | 90 | 0 | 30 | 0 | 10 | 30 | 80 | Pigweed plant response rating ([4]; Preemergence, 31 g ai/ha): 100; Plant response rating, Pigweed [4, 14]: 100; Plant response rating, Ragweed [5, 12]: 20; Plant response rating, Ragweed [5, 13]: 60; Ragweed plant response rating ([5]; Preemergence, 31 g ai/ha): 0; Plant response rating, Ragweed [5, 14]: 10; Plant response rating, Wheat ([6]; 31 g ai/ha, Postemergence): 0; Plant response rating, Wheat ([6]; 125 g ai/ha, postemergence): 0; Plant response rating, Blackgrass ([7]; 31 g ai/ha, Postemergence): 30; Plant response rating, Blackgrass ([7]; 125 g ai/ha, postemergence): 90; Plant response rating, Galium ([8]; 31 g ai/ha, Postemergence): 90; Plant response rating, Galium ([8]; 125 g ai/ha, postemergence): 100; Barnyardgrass plant response rating [9]: 60; Ducksalad plant response rating [10]: 40; Rice plant response rating (rice (Oryza sativa)): 30; Sedge, Umbrella plant response rating [11]: 80
COc1cccc(Oc2ncc(Cl)cn2)c1-c1cc(C(F)(F)F)on1 [Compound 105] | 0 | 10 | 0 | 20 | 10 | 70 | 20 | 90 | 10 | 20 | 40 | 80 | 70 | 100 | 30 | 70 | 0 | 10 | 90 | 100 | Pigweed plant response rating ([4]; Preemergence, 31 g ai/ha): 100; Plant response rating, Pigweed [4, 14]: 100; Plant response rating, Ragweed [5, 12]: 10; Plant response rating, Ragweed [5, 13]: 30; Ragweed plant response rating ([5]; Preemergence, 31 g ai/ha): 0; Plant response rating, Ragweed [5, 14]: 0; Plant response rating, Wheat ([6]; 31 g ai/ha, Postemergence): 0; Plant response rating, Wheat ([6]; 125 g ai/ha, postemergence): 10; Plant response rating, Blackgrass ([7]; 31 g ai/ha, Postemergence): 70; Plant response rating, Blackgrass ([7]; 125 g ai/ha, postemergence): 100; Plant response rating, Galium ([8]; 31 g ai/ha, Postemergence): 70; Plant response rating, Galium ([8]; 125 g ai/ha, postemergence): 100; Barnyardgrass plant response rating [9]: 45; Ducksalad plant response rating [10]: 40; Rice plant response rating (rice (Oryza sativa)): 35; Sedge, Umbrella plant response rating [11]: 70
Cc1nnc(-c2ccccc2Oc2ncc(Cl)cn2)o1 [Compound 106] | 0 | 0 | 0 | 0 | 0 | 0 | 0 | 0 | 0 | 0 | 0 | 0 | 0 | 0 | 0 | 0 | 0 | 0 | 0 | 0 | Pigweed plant response rating ([4]; Preemergence, 31 g ai/ha): 0; Plant response rating, Pigweed [4, 14]: 0; Plant response rating, Ragweed [5, 12]: 0; Plant response rating, Ragweed [5, 13]: 0; Ragweed plant response rating ([5]; Preemergence, 31 g ai/ha): 0; Plant response rating, Ragweed [5, 14]: 0; Plant response rating, Wheat ([6]; 31 g ai/ha, Postemergence): 0; Plant response rating, Wheat ([6]; 125 g ai/ha, postemergence): 0; Plant response rating, Blackgrass ([7]; 31 g ai/ha, Postemergence): 0; Plant response rating, Blackgrass ([7]; 125 g ai/ha, postemergence): 0; Plant response rating, Galium ([8]; 31 g ai/ha, Postemergence): 0; Plant response rating, Galium ([8]; 125 g ai/ha, postemergence): 0; Barnyardgrass plant response rating [9]: 0; Ducksalad plant response rating [10]: 0; Rice plant response rating (rice (Oryza sativa)): 0; Sedge, Umbrella plant response rating [11]: 0
